Test systems include DU-145 prostate; SF-539 CNS; SW-620 colon; A549 NSCLC; MCF7 breast; CCRF-CEM leukemia; SR leukemia; A498 renal; COLO 205 colon; KM12 colon; HCT-116 colon; MDA-MB-435; NCI-H460 lung; MALME-3M melanoma; SF-268 CNS; OVCAR-3 ovarian; IGROV1 ovarian; LOX IMVI melanoma; SF-295 CNS.
Holding throughout (assay): inhibition of tumour cell growth, NCI panel, 48 h

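A five-concentration, 48-hour dose response in 96-well plates underlies each endpoint, interpolated linearly between surrounding concentrations. TGI marks complete inhibition of growth.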

Take `N#Cc1ccccc1NC(=O)C(O)C(O)C(O)C(O)C=O` (stereo unspecified): the TGI in the experiment on DU-145 prostate, in the experiment on SF-539 CNS, with SW-620 colon, with A549 NSCLC, in the experiment on MCF7 breast and in the experiment on CCRF-CEM leukemia was above 100 µM in each case. The TGI in the experiment on SR leukemia, in the experiment with A498 renal, with COLO 205 colon, in the experiment with KM12 colon, with HCT-116 colon and in the experiment on MDA-MB-435 was above 100 µM each time. The TGI in the experiment on NCI-H460 lung, with MALME-3M melanoma, in the experiment with SF-268 CNS, in the experiment with OVCAR-3 ovarian, in the experiment with IGROV1 ovarian and in the experiment with LOX IMVI melanoma was above 100 µM each time. This molecule also returned a TGI with SF-295 CNS above 100 µM.

With `NC(N)=N/N=C/c1c(Cl)nc2n1CCS2`, the TGI in the experiment with DU-145 prostate, with SF-539 CNS, in the experiment on SW-620 colon, in the experiment with A549 NSCLC, in the experiment on MCF7 breast and with CCRF-CEM leukemia was above 100 µM each time. The TGI in the experiment with SR leukemia is above 100 µM; in the experiment on A498 renal, above 100 µM; in the experiment on COLO 205 colon it was above 100 µM; with KM12 colon, above 100 µM; in the experiment with HCT-116 colon, 73.7 µM; in the experiment with MDA-MB-435, above 100 µM. The TGI with NCI-H460 lung, in the experiment on MALME-3M melanoma, in the experiment with SF-268 CNS, in the experiment on OVCAR-3 ovarian, with IGROV1 ovarian and with LOX IMVI melanoma was above 100 µM in each case. This molecule yielded a TGI in the experiment on SF-295 CNS above 100 µM.

Take `CC(C)(CO)CNc1nc(N)nc(Cl)c1C=O`: the TGI in the experiment on DU-145 prostate was above 100 µM; with SF-539 CNS, above 100 µM; in the experiment on SW-620 colon it was above 100 µM; in the experiment with A549 NSCLC, above 100 µM; in the experiment on MCF7 breast, above 100 µM; with CCRF-CEM leukemia, 83.9 µM. Further, the TGI with SR leukemia was 66.6 µM; with A498 renal it was above 100 µM; with COLO 205 colon, 72.2 µM; with KM12 colon it was above 100 µM; in the experiment on HCT-116 colon, 40.1 µM; in the experiment with MDA-MB-435, 66.5 µM. In addition, the TGI is above 100 µM in the experiment with NCI-H460 lung; above 100 µM in the experiment on MALME-3M melanoma; 42.2 µM with SF-268 CNS; 62.8 µM with OVCAR-3 ovarian; 46.4 µM with IGROV1 ovarian; 33.8 µM with LOX IMVI melanoma. Moreover, in the experiment with SF-295 CNS, the TGI was above 100 µM.

As for `CCCCCCCCCCCCCCCCNc1nc(=O)n(C2CC(O)C(COP(=O)(O)OC3CC(n4cc(F)c(=O)[nH]c4=O)OC3CO)O2)cc1F` (stereo unspecified), the TGI in the experiment on DU-145 prostate is above 70.6 µM; in the experiment on SF-539 CNS it was 0.956 µM; in the experiment on SW-620 colon, above 100 µM; in the experiment with A549 NSCLC it was 26.4 µM; in the experiment on MCF7 breast it was 97.1 µM; in the experiment with CCRF-CEM leukemia, 17.6 µM. For the same molecule, the TGI was 13.1 µM in the experiment with SR leukemia; above 89.6 µM with A498 renal; 47.4 µM with COLO 205 colon; above 81.4 µM with KM12 colon; above 100 µM in the experiment on HCT-116 colon; above 100 µM in the experiment with MDA-MB-435. Besides, the TGI in the experiment on NCI-H460 lung was 22.6 µM; in the experiment on MALME-3M melanoma it was above 72.1 µM; in the experiment on SF-268 CNS, above 34.2 µM; in the experiment with OVCAR-3 ovarian, above 100 µM; in the experiment with IGROV1 ovarian, above 59.9 µM; in the experiment with LOX IMVI melanoma it was 17.1 µM. The molecule further yielded a TGI with SF-295 CNS of 18.9 µM.
